Test results: ChEMBL document CHEMBL2331103, “Synthesis of a novel series of 2-alkylthio substituted naphthoquinones as potent acyl-CoA: cholesterol acyltransferase (ACAT) inhibitors” (Eur J Med Chem, 2013)

Each compound was assayed against T1, Sterol O-acyltransferase 1 (Homo sapiens, UniProt P35610) (assay: Inhibition of human macrophage ACAT expressed in human HepG2 cells using [14C]oleoyl-CoA as substrate incubated for 20 mins prior to substrate addition measured after 25 mins by liquid scintillation counting analysis).
T1 sequence (P35610 whole entry): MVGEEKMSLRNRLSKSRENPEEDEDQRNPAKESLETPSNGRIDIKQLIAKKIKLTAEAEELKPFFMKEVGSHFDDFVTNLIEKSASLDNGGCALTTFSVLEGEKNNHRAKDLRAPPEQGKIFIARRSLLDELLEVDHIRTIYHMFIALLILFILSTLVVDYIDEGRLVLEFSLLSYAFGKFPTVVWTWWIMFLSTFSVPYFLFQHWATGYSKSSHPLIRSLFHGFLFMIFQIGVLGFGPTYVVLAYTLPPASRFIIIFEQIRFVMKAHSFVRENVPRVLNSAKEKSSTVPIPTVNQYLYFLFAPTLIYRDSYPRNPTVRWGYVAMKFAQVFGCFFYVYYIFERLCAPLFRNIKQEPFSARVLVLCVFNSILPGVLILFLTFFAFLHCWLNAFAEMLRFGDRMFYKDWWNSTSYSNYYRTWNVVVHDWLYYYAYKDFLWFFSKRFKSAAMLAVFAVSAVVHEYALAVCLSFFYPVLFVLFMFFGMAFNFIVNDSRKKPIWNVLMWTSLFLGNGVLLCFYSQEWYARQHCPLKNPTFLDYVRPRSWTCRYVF
Assay type: cell-based

Row | Compound | IC50
1 | CCCCCCCCCCCSC1=CC(=O)c2ccccc2C1=O | 8.67 µM
2 | CCCCCCCCCCCCCCC[S+]([O-])C1=CC(=O)c2ccccc2C1=O (stereo not given) | 56.6 µM
3 | CCS(=O)(=O)C1=CC(=O)c2c(OC)ccc(OC)c2C1=O | > 100 µM
4 | CCCS(=O)(=O)C1=CC(=O)c2c(OC)ccc(OC)c2C1=O | > 100 µM
5 | CCCCCCCCCCCS(=O)(=O)C1=CC(=O)c2c(OC)ccc(OC)c2C1=O | 3.4 µM
6 | CCCCCCCCCCCCCCCS(=O)(=O)C1=CC(=O)c2c(OC)ccc(OC)c2C1=O | 5.8 µM
7 | CSC1=CC(=O)c2ccccc2C1=O | 2.82 µM
8 | CCCSC1=CC(=O)c2ccccc2C1=O | 5.08 µM
9 | CCCCSC1=CC(=O)c2ccccc2C1=O | 7.87 µM
10 | CCCCCSC1=CC(=O)c2ccccc2C1=O | 8.19 µM
11 | CCCCCCCCSC1=CC(=O)c2ccccc2C1=O | 6 µM
12 | CCCCCCCCCSC1=CC(=O)c2ccccc2C1=O | 1.63 µM
13 | CCCCCCCCCCCCSC1=CC(=O)c2ccccc2C1=O | 1.66 µM
14 | CCCCCCCCCCCCCCCSC1=CC(=O)c2ccccc2C1=O | 4.13 µM
15 | CCCCCCCCCCCCCCCCCCSC1=CC(=O)c2ccccc2C1=O | 1.45 µM
16 | C[S+]([O-])C1=CC(=O)c2ccccc2C1=O (stereo not given) | 5.66 µM
17 | CCCCCCCCC[S+]([O-])C1=CC(=O)c2ccccc2C1=O (stereo not given) | 5.47 µM
18 | COc1ccc(OC)c2c1C(=O)C=C([S+](C)[O-])C2=O (stereo not given) | > 100 µM
19 | CCCCCCCCCC[S+]([O-])C1=CC(=O)c2c(OC)ccc(OC)c2C1=O (stereo not given) | 8.4 µM
20 | CCCCCCCCCCC[S+]([O-])C1=CC(=O)c2c(OC)ccc(OC)c2C1=O (stereo not given) | 1.1 µM
21 | CCCCCCCCCCCC[S+]([O-])C1=CC(=O)c2c(OC)ccc(OC)c2C1=O (stereo not given) | 2.4 µM
22 | CCCCCCCCCCCCCCCCCC[S+]([O-])C1=CC(=O)c2c(OC)ccc(OC)c2C1=O (stereo not given) | > 100 µM
23 | COc1ccc(OC)c2c1C(=O)C=C(S(C)(=O)=O)C2=O | > 100 µM
24 | CCSC1=CC(=O)c2ccccc2C1=O | 7.51 µM
25 | CC(C)CNC(=O)/C=C/C=C/CCCC/C=C/c1ccc2c(c1)OCO2 [RETROFRACTAMIDE B] | 3.7 µM
